From patent US20100013377A1, “Compounds for use in Opto-Electrical Devices” (CDT OXFORD LIMITED, priority 2006, published 2010)

Conditions: in all of xylene, toluene, chlorobenzene, chloroform or tetrahydrofuran
From the text: By “solubilizing substituent” we mean a substituent which renders the triazine sufficiently soluble in organic solvents that it can be solution processed to fabricate an opto-electrical device by, for example, ink-jet printing or spin-coating. […] Organic solvents suitable for opto-electrical device fabrication include xylene, toluene, chlorobenzene, chloroform or tetrahydrofuran but preferably toluene or xylene.

c1ccc(-c2ccc(-c3nc(-c4ccc(-c5ccccc5)cc4)nc(-c4ccc(-c5ccccc5)cc4)n3)cc2)cc1 [2,4,6-tris(biphenyl)-1,3,5-triazine]
solubility: < 5000 µg/mL
